Reference: paper PMC5632672, “Generation of Persister Cells of Pseudomonas aeruginosa and Staphylococcus aureus by Chemical Treatment and Evaluation of Their Susceptibility to Membrane-Targeting Agents” (Frontiers in Microbiology, 2017)
No end group written: not given here.

Experiments:
[1] = system: Staphylococcus aureus ATCC 33591; conditions: ATCC 33591, 3 h
[2] = system: Pseudomonas aeruginosa ATCC 27853; conditions: ATCC 27853, 3 h

Substance: FLPIVGLLKSLLK-NH2 [TB_L1FK]
- MBC, S. aureus CCCP-pretreated [1]: 3.5 µM
- MBC, S. aureus CCCP-untreated [1]: 7 µM
- MBC, P. aeruginosa CCCP-pretreated [2]: 14 µM
- MBC, P. aeruginosa CCCP-untreated [2]: 14 µM
